Among the targets are Integrin alpha-V/beta-5 (Homo sapiens, UniProt P06756+P18084); Integrin alpha-V/beta-3 (Homo sapiens, UniProt P05106+P06756); Integrin alpha-V/beta-8 (Homo sapiens, UniProt P06756+P26012); Integrin alpha-V/beta-1 (Homo sapiens, UniProt P05556+P06756).
Data set [1] is described as follows: Inhibition of integrin alphavbeta8 (unknown origin) by radioligand binding assay. Also noted: species or system Homo sapiens.
Data set [2] is described as follows: Stability in cryopreserved Wistar-Han rat hepatocytes assessed as compound turnover rate at 0.5 uM measured up to 60 mins by LC-MS/MS analysis. Format: ADME, cell-based, Hepatocyte. The settings on record: 1 h.
A short description of data set [3]: Unbound blood clearance in dual cannulated Wistar-Han rat at 1 mg/kg, iv administered as infusion for 30 mins and measured up to 24 hrs by LC-MS/MS analysis. As to conditions: in vivo. Format: ADME, organism-based.
Data set [4] can be described thus: Blood clearance in dual cannulated Wistar-Han rat at 1 mg/kg, iv administered as infusion for 30 mins and measured up to 24 hrs by LC-MS/MS analysis. Format: ADME, organism-based. The settings on record: whole blood.
Data set [5] can be described thus: Stability in cryopreserved human hepatocytes at 0.5 uM measured up to 60 mins by LC-MS/MS analysis. Format: ADME, cell-based, Hepatocyte. The settings on record: 1 h.
Data set [6] is described as follows: Volume of distribution in dual cannulated Wistar-Han rat at 1 mg/kg, iv administered as infusion for 30 mins and measured up to 24 hrs by LC-MS/MS analysis. It counts as ADME, organism-based. The settings on record: in vivo.
Data set [7] is described as follows: Inhibition of human LAP binding to human integrin alphavbeta8 after 2 hrs.
For data set [8] the following is noted: buffer.
Description: (§1) Aqueous kinetic solubility of the compund by CLND method
Data set [9] can be described thus: physchem. As to conditions: buffer, pH 7.4.
Description: Lipophilicity, logD of the compound at pH 7.4 by chromatographic method
The target in data set [10] is T1, Integrin alpha-V/beta-6 (Homo sapiens, UniProt P06756+P18564).
T1 sequence (P06756 31-889 limits assumed): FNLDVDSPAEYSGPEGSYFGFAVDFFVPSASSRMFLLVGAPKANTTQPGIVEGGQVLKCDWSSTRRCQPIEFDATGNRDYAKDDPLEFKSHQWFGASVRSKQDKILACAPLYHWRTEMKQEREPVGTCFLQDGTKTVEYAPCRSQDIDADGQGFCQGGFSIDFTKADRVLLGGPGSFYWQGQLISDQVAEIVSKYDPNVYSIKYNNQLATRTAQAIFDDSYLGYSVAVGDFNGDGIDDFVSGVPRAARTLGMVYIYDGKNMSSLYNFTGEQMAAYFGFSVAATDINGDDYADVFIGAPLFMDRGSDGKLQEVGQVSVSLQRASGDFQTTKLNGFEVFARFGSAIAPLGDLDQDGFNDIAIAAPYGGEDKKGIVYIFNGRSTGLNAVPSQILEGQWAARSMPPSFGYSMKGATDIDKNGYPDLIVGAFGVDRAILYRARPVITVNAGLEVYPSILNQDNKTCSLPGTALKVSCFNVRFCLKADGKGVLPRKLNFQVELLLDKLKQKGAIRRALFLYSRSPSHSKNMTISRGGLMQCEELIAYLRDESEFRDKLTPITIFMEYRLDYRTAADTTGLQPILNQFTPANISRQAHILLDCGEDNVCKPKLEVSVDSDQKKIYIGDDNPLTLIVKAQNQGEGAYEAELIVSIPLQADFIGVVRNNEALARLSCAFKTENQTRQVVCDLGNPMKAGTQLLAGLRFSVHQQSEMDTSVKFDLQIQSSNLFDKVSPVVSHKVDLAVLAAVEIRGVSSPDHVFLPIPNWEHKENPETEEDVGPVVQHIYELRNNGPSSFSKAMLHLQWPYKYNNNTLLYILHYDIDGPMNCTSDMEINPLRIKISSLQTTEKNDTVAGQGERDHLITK
T1 sequence (P06756 891-1048 limits assumed): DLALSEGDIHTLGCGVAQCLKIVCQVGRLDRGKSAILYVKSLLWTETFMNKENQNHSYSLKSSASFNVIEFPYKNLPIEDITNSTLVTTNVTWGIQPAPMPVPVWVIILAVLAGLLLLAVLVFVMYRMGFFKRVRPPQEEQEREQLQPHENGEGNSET
T1 sequence (P18564 22-788 limits assumed): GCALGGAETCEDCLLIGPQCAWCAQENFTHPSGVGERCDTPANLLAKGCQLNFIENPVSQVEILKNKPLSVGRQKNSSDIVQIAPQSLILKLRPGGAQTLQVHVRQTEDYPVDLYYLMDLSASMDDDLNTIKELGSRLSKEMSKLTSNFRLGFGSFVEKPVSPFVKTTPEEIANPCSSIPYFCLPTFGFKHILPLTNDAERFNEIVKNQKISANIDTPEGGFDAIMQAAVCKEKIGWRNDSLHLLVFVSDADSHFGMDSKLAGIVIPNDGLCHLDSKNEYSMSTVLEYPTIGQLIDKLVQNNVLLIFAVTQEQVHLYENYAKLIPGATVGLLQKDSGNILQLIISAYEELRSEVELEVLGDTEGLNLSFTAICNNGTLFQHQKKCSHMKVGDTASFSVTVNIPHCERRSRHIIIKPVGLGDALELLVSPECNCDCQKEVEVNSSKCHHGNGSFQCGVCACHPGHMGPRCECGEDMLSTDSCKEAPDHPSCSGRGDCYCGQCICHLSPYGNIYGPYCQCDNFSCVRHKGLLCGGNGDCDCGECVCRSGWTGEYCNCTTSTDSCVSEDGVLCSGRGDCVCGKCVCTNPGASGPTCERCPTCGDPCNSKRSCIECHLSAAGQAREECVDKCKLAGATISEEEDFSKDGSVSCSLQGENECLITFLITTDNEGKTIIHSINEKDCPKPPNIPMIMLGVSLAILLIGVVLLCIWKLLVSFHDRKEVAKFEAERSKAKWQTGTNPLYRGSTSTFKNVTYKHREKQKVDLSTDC
Description: Inhibition of integrin alphavbeta6 (unknown origin) expressed in human K562 cells assessed as reduction in cell adhesion to GST-LAP1 (242 to 252 amino acids) incubated for 30 mins by fluorescent probe BCECF-AM based fluorescence assay
Data set [11] is described as follows: Half-life in dual cannulated Wistar-Han rat at 1 mg/kg, iv administered as infusion for 60 mins and measured up to 7 hrs by LC-MS/MS analysis. Format: ADME, organism-based. As to conditions: in vivo.
Data set [12] is described as follows: Unbound blood clearance in dual cannulated Wistar-Han rat at 1 mg/kg, iv administered as infusion for 60 mins and measured up to 7 hrs by LC-MS/MS analysis. As to conditions: in vivo. It counts as ADME, organism-based.
Data set [13] can be described thus: Protein binding in rat blood assessed as unbound fraction at 1 ug/ml incubated for 4 hrs by LC-MS/MS-based rapid equilibrium dialysis method. It counts as ADME, tissue-based. As to conditions: at 1 µg/mL. (In equilibrium dialysis free small molecules cross a membrane that holds back macromolecules.)
Another data set in a line: in vitro. As to conditions: not told.
Data set [14] concerns the target T1, Integrin alpha-V/beta-6. Description: Inhibition of integrin alphavbeta6 (unknown origin) by radioligand binding assay. Format: protein-complex assay.
Data set [15] in a line: Blood clearance in dual cannulated Wistar-Han rat at 1 mg/kg, iv administered as infusion for 60 mins and measured up to 7 hrs by LC-MS/MS analysis. Format: ADME, organism-based. The settings on record: whole blood.
The nature of data set [16]: physchem. As to conditions: buffer.
Description: as §1
For data set [17], the species on record is Homo sapiens. Description: Selectivity ratio of IC50 for integrin alphavbeta5 (unknown origin) expressed in human K562 cells to IC50 for integrin alphavbeta6 (unknown origin) expressed in human K562 cells. It counts as cell-based.
The species entered for data set [18] is Homo sapiens. The experiment in a line: Selectivity ratio of IC50 for integrin alphavbeta8 (unknown origin) expressed in human K562 cells to IC50 for integrin alphavbeta6 (unknown origin) expressed in human K562 cells. It counts as cell-based.
A short description of data set [19]: Protein binding in human lung homogenates assessed as fraction unbound at 1 ug/ml incubated for 4 hrs by LC-MS/MS-based rapid equilibrium dialysis method. It counts as ADME, tissue-based. As to conditions: at 1 µg/mL.
The target in data set [20] is Voltage-gated inwardly rectifying potassium channel KCNH2 (Homo sapiens, UniProt Q12809). Description: Inhibition of human ERG expressed in CHO-K1 cells at -80 mV holding potential by IonWorks barracuda automated electrophysiology method. Format: cell-based. (In general: The patch-clamp technique gives a direct electrical read-out from membranes.)
Data set [21] is described as follows: Protein binding in human blood assessed as fraction unbound at 1 ug/ml incubated for 4 hrs by LC-MS/MS-based rapid equilibrium dialysis method. Format: ADME, tissue-based. As to conditions: at 1 µg/mL.
The species named for data set [22] is Homo sapiens. Description: Selectivity ratio of IC50 for integrin alphavbeta1 (unknown origin) expressed in human A549 cells to IC50 for integrin alphavbeta6 (unknown origin) expressed in human K562 cells. It counts as cell-based.
The species named for data set [23] is Homo sapiens. Description: Selectivity ratio of IC50 for integrin alphavbeta3 (unknown origin) expressed in human K562 cells to IC50 for integrin alphavbeta6 (unknown origin) expressed in human K562 cells. Format: cell-based.
Data set [24] is described as follows: Drug metabolism assessed as unmethylated (3S)-3-[3-(3,5-dimethylpyrazol-1-yl)phenyl]-4-[(3R)-3-[2-(5,6,7,8-tetrahydro-1,8-naphthyridin-2-yl)ethyl]pyrrolidin-1-yl]butanoic acid hydrochloride formation.
The nature of data set [25]: Volume of distribution in dual cannulated Wistar-Han rat at 1 mg/kg, iv administered as infusion for 60 mins and measured up to 7 hrs by LC-MS/MS analysis. It counts as ADME, organism-based. The settings on record: in vivo.

Results on nine molecules are retold here after ChEMBL document CHEMBL4373707 (J Med Chem, 2019).

Chain of Integrin alpha-V/beta-1 (P05556 21-798 limits assumed): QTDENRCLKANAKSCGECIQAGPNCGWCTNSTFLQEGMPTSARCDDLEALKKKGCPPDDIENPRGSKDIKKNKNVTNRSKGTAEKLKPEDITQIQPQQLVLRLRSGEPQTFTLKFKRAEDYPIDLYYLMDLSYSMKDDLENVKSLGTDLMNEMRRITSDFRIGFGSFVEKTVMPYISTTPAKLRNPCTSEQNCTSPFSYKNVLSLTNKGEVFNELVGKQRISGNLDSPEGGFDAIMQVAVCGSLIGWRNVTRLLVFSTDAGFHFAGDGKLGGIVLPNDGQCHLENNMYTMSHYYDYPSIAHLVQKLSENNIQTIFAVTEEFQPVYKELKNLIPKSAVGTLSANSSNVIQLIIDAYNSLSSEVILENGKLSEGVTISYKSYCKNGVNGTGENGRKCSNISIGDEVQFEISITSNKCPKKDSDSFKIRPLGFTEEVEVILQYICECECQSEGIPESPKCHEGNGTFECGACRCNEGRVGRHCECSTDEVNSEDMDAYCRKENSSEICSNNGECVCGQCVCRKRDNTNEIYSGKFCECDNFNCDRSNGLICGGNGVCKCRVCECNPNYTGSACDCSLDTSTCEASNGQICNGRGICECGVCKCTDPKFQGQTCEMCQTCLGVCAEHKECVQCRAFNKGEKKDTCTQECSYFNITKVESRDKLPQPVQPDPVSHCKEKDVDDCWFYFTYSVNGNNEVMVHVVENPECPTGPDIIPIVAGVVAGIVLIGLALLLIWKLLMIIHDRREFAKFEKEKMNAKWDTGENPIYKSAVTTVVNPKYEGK
Chain of Integrin alpha-V/beta-1 (P06756 31-889 limits assumed): as the sequence (P06756 31-889 limits assumed) above
Chain of Integrin alpha-V/beta-1 (P06756 891-1048 limits assumed): as the sequence (P06756 891-1048 limits assumed) above
Chain of Integrin alpha-V/beta-5 (P06756 31-889 limits assumed): as the sequence (P06756 31-889 limits assumed) above
Chain of Integrin alpha-V/beta-5 (P06756 891-1048 limits assumed): as the sequence (P06756 891-1048 limits assumed) above
Chain of Integrin alpha-V/beta-5 (P18084 24-799 limits assumed): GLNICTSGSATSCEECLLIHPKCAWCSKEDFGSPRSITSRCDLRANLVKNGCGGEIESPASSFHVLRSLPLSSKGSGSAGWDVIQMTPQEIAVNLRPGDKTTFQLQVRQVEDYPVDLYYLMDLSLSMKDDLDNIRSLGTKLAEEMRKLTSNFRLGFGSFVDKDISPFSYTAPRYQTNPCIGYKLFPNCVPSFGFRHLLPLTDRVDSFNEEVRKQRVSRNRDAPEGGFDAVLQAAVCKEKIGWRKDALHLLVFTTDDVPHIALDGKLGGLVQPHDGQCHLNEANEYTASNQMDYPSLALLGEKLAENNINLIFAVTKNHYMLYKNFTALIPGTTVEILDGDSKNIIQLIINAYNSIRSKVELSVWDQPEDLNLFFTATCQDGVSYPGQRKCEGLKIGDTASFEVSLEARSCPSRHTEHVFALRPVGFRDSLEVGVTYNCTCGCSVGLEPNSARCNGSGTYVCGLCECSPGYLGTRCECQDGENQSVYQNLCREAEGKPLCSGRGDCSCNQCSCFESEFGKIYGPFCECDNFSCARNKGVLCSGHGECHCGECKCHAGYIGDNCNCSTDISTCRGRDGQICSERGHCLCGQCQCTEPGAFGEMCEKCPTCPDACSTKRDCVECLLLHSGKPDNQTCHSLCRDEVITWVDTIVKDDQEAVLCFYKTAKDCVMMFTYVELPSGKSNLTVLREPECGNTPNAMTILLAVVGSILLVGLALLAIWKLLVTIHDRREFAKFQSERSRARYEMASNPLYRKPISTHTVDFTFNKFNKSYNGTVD
Chain of Integrin alpha-V/beta-8 (P06756 31-889 limits assumed): as the sequence (P06756 31-889 limits assumed) above
Chain of Integrin alpha-V/beta-8 (P06756 891-1048 limits assumed): as the sequence (P06756 891-1048 limits assumed) above
Chain of Integrin alpha-V/beta-8 (P26012 43-769 limits assumed): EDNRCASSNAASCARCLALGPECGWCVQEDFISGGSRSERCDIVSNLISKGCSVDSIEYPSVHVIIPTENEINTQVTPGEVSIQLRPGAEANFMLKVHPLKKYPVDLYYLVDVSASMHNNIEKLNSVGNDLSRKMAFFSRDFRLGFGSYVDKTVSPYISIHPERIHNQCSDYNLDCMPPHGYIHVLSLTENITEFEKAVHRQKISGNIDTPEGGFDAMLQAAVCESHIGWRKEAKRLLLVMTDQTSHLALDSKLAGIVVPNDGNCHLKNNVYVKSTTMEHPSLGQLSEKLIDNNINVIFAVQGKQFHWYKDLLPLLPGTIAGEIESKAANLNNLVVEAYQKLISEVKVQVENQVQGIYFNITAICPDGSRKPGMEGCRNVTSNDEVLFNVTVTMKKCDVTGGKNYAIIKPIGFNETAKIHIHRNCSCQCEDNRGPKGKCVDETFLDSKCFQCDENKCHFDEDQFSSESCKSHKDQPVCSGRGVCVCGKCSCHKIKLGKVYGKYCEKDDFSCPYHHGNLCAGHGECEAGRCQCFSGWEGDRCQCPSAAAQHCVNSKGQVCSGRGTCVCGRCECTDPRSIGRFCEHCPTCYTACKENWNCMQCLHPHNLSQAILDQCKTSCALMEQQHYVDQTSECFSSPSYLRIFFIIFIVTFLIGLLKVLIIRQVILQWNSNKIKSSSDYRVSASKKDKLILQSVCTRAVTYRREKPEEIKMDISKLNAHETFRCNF
Description for Integrin alpha-V/beta-1: Inhibition of integrin alphavbeta1 (unknown origin) expressed in human A549 cells assessed as reduction in cell adhesion to GST-LAP1 (242 to 252 amino acids) incubated for 30 mins by fluorescent probe BCECF-AM based fluorescence assay
Description for Integrin alpha-V/beta-3: Inhibition of integrin alphavbeta3 (unknown origin) expressed in human K562 cells assessed as reduction in cell adhesion to GST-LAP1 (242 to 252 amino acids) incubated for 30 mins by fluorescent probe BCECF-AM based fluorescence assay
Description for Integrin alpha-V/beta-5: Inhibition of integrin alphavbeta5 (unknown origin) expressed in human K562 cells assessed as reduction in cell adhesion to human vitronectin incubated for 30 mins by fluorescent probe BCECF-AM based fluorescence assay
Description for Integrin alpha-V/beta-8: Inhibition of integrin alphavbeta8 (unknown origin) expressed in human K562 cells assessed as reduction in cell adhesion to GST-LAP1 (242 to 252 amino acids) incubated for 30 mins by fluorescent probe BCECF-AM based fluorescence assay
Description for in vitro: Permeability of the compound

Broadly, the pKi is the Ki on a negative log10 scale, so that one unit is a factor of ten. Lower therefore signals a high Ki. A word on the clearance: it is the rate of elimination divided by the concentration. A lower clearance goes with inefficient removal. By Vd is commonly meant the apparent volume that relates the amount in the body to the concentration in plasma or blood. A higher Vd goes with wide distribution into tissue. The molecule `Cc1cc(C)n(-c2cccc([C@H](CC(=O)O)CN3CC[C@@H](CCc4ccc5c(n4)NCCC5)C3)c2)n1.Cl` [GSK-3008348] had a pKi in data set [1] of 8.7. Further, the Drug metabolism in data set [2] came to 9.45 mL/min/g. The same molecule came in with a CL free in data set [3] of 150 mL/min/kg. The same molecule displayed a clearance in data set [4] of 56 mL/min/kg. Besides, in [5], the Stability is < 0.86 mL/min/g. Besides, the Vd in data set [6] stood at 2.1 L/kg.
The IC50 is the concentration that gives 50% inhibition. `CC(C)(C)c1cc(Br)cc([C@H](CC(=O)O)NC(=O)CNC(=O)c2cc(O)cc(NC3=NCC(O)CN3)c2)c1` (stereo partly specified) had an IC50 in data set [7] of 0.2 nM.
The chromatographic logD is a lipophilicity value derived from retention on a column. On to `Cc1ccnn1-c1cccc([C@H](CC(=O)[O-])C[N+]2(C)CC[C@@H](CCc3ccc4c(n3)NCCC4)C2)c1` (mixture of isomers), for which the Kinetic_solubility entry in data set [8] is “Soluble”. Moreover, the IC50 against Integrin alpha-V/beta-5 is 631 nM; against Integrin alpha-V/beta-3, 6.31 µM; against Integrin alpha-V/beta-8, 100 nM; against Integrin alpha-V/beta-1, 1580 nM. This molecule also returned a chromatographic logD in the data set “physchem [9]” of 2.1.
For `C[N+]1(C[C@@H](CC(=O)[O-])c2cccc(N3CCOCC3)c2)CC[C@@H](CCc2ccc3c(n2)NCCC3)C1` (mixture of isomers), the Kinetic_solubility result in [8] was “Soluble”. The IC50 on Integrin alpha-V/beta-5 is 251 nM; against Integrin alpha-V/beta-3, 5.01 µM; at Integrin alpha-V/beta-6 [10], 12.6 nM; on Integrin alpha-V/beta-8, 126 nM; against Integrin alpha-V/beta-1, 794 nM. For the same molecule, the chromatographic logD in “physchem [9]” worked out at 1.8.
Broadly, the half-life is how long it takes for the measured level to halve. Read a low half-life as fast loss. As usually defined, the fraction unbound is free concentration divided by total concentration. Broadly, the Papp is a coefficient for how fast a substance crosses the barrier. Lower therefore signals slow passage. In general, Ki refers to a dissociation constant, usually derived from enzyme kinetics or from competition with a known ligand. Lower therefore signals tighter binding. The term kinetic solubility denotes solubility judged after dilution from a stock solution rather than from solid. On to `Cc1cc(C)n(-c2cccc([C@H](CC(=O)[O-])C[N@@+]3(C)CC[C@@H](CCc4ccc5c(n4)NCCC5)C3)c2)n1`, for which the half-life in data set [11] was 13.2 min. In addition, the figures for the Drug metabolism in data set [2] and in data set [24] were 1.22 mL/min/g and “Metabolite not detected”, respectively. This molecule also displayed a CL free in data set [12] of 190 mL/min/kg. The fraction unbound at 4 h, 1 ug/ml in [13] amounted to 0.583; in [19], 0.097; in [21], 0.503. Further, in “in vitro”, the Papp is < 0.8 ×10⁻⁶ cm/s. Besides, the Ki on Integrin alpha-V/beta-6 [14] is 0.107 nM. The clearance in data set [15] came to 87.6 mL/min/kg. Besides, the kinetic solubility in “physchem [16]” was > 1000 µg/mL. In addition, the Ratio IC50 in the data set listed under Homo sapiens [17], in the data set filed under Homo sapiens [18], in the data set filed under Homo sapiens [22] and in the data set listed under Homo sapiens [23] was 10 to 1000 in each case. Moreover, the IC50 against Integrin alpha-V/beta-5 is 501 nM; in [20], > 50.1 µM; on Integrin alpha-V/beta-3 it was 6.31 µM; at Integrin alpha-V/beta-6 [10], 3.16 nM; on Integrin alpha-V/beta-8, 79.4 nM; against Integrin alpha-V/beta-1, 631 nM. Also, the chromatographic logD in “physchem [9]” came to 2.5. Also, the Stability in [5] is < 0.45 mL/min/g. Also, the Vd in data set [25] came out at 1.1 L/kg.
Turning to `Cc1cc(C)n(-c2cccc([C@H](CC(=O)[O-])C[N@+]3(C)CC[C@@H](CCc4ccc5c(n4)NCCC5)C3)c2)n1`, the Kinetic_solubility result in [8] is reported as “Soluble”. The same molecule showed a Ki on Integrin alpha-V/beta-6 [14] of 0.174 nM. Also, the Ratio IC50 in the data set listed under Homo sapiens [17], in the data set filed under Homo sapiens [18], in the data set listed under Homo sapiens [22] and in the data set listed under Homo sapiens [23] was 10 to 1000 each time. Besides, the 50% inhibitory concentration (IC50) is 1000 nM against Integrin alpha-V/beta-5; > 10 µM on Integrin alpha-V/beta-3; 3.16 nM on Integrin alpha-V/beta-6 [10]; 63.1 nM against Integrin alpha-V/beta-8; 2000 nM at Integrin alpha-V/beta-1. The molecule also returned a chromatographic logD in the data set “physchem [9]” of 2.4.
Turning to `CC[N@+]1(C[C@@H](CC(=O)[O-])c2cccc(-n3nc(C)cc3C)c2)CC[C@@H](CCc2ccc3c(n2)NCCC3)C1`, the Kinetic_solubility result in [8] was “Soluble”. Further, the IC50 on Integrin alpha-V/beta-5 is > 10000 nM; against Integrin alpha-V/beta-6 [10] it was 39.8 nM; on Integrin alpha-V/beta-8 it was 1260 nM; at Integrin alpha-V/beta-1 it was 5010 nM. Besides, in the data set “physchem [9]”, the chromatographic logD came out at 2.8.
On to `C[N+]1(C[C@@H](CC(=O)[O-])c2cccc(O[C@@H]3CCOC3)c2)CC[C@@H](CCc2ccc3c(n2)NCCC3)C1` (mixture of isomers), for which the Kinetic_solubility result in [8] is “Soluble”. In addition, the IC50 on Integrin alpha-V/beta-5 was 79.4 nM; on Integrin alpha-V/beta-3 it was 3.98 µM; on Integrin alpha-V/beta-6 [10], 12.6 nM; against Integrin alpha-V/beta-8 it was 200 nM; against Integrin alpha-V/beta-1, 3980 nM. In addition, in the data set “physchem [9]”, the chromatographic logD was 1.9.
Take `O=C(O)C[C@H](CN1CC[C@@H](CCc2ccc3c(n2)NCCC3)C1)c1cccc(N2CCOCC2)c1`: in [8], the Kinetic_solubility result is reported as “Soluble”. For the same molecule, in the data set “physchem [9]”, the chromatographic logD stood at 2.3.
